Source: patent publication US9340577B2, “HLA binding motifs and peptides and their uses” (priority 1992, dated 2016)
No end group written: not given here.

Key:
Test in all cases: biochemical
Format in all cases: binding
[1] = molecular target: HLA-A1 (A*0101) (Homo sapiens, UniProt P04439, A114D/A174V/A182V/D101N/D185E/E176A/E190D/L180R/Q94H/R68K/S129P/T187R/V100A/V91M/W191G)
[2] = molecular target: A*6801 (Homo sapiens, UniProt P04439, A269V/D185E/E176V/E277Q/E87N/F33Y/G231S/I121M/I166T/I218V/L180W/L300P/L318F/N151K/P208A/P217A/Q86R/R169H/T345S)
[3] = molecular target: A*3002 (Homo sapiens, UniProt P04439, D101N/D140H/D185E/E176R/F33S/G80R/H175R/K168Q/Q94H/R138E/R41S/V100E)
[4] = molecular target: A*2902 (Homo sapiens, UniProt P04439, A270S/D101N/D185E/E176V/E277Q/E87Q/F33T/G231S/H175R/I121M/I218V/I322F/K168Q/L300P/L318F/M331R/P208A/P217A/Q86L/T323A/T345S/V100A/V358M)
[5] = molecular target: A31 (A*3101) (Homo sapiens, UniProt P04439, A270S/D185E/E176V/E277Q/F33T/G231S/G80R/H175R/I121M/I218V/I322F/K168Q/L300P/L318F/M331R/P217A/Q94H/R138Q/T323A/T345S/T97I/V358M)
[6] = molecular target: A*3301 (Homo sapiens, UniProt P04439, A270S/D185E/E176V/E277Q/E87N/F33T/G231S/H175R/I121M/I218V/I322F/K168Q/K210R/L300P/L318F/M331R/P217A/Q86R/Q94H/R138Q/T323A/T345S/T97I/V358M/Y195H)
[7] = molecular target: HLA-A11 (A*1101) (Homo sapiens, UniProt P04439, A114D/D185E/E176A/F33Y/L180Q/S129P/T187R)
[8] = molecular target: A*2601 (Homo sapiens, UniProt P04439, A114D/A173T/A270S/D101N/D185E/E277Q/E87N/F33Y/G231S/I121R/I218V/K168Q/L180W/L300P/L318F/P208A/P217A/Q86R/Q94H/R138Q/S129P/T187R/T323A/T345S/V100A/V358M)

Sequence of A*3002 (P04439 whole entry, looked up, the tested form may be a part, stated change not applied): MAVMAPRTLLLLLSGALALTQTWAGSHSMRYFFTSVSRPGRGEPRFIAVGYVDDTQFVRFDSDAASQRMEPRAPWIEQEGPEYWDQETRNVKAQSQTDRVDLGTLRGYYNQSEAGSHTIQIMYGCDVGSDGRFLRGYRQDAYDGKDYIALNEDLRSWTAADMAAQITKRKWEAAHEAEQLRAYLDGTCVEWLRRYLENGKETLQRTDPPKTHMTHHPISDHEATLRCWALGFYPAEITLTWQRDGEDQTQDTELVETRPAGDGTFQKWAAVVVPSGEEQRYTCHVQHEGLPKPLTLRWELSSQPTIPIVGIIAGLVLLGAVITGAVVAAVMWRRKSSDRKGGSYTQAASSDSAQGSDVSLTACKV

Compound	IC50 [1]	IC50 [2]	IC50 [3]	IC50 [4]	IC50 [5]	IC50 [6]	IC50 [7]	IC50 [8]
CC(C)C[C@H](NC(=O)[C@H](CO)NC(=O)[C@@H](N)CCCNC(=N)N)C(=O)N[C@@H](Cc1ccc(O)cc1)C(=O)N[C@@H](CC(N)=O)C(=O)N[C@H](C(=O)N[C@H](C(=O)N[C@@H](C)C(=O)N[C@H](C(=O)N[C@@H](CC(C)C)C(=O)N[C@@H](Cc1ccc(O)cc1)C(=O)O)[C@@H](C)O)C(C)C)[C@@H](C)O [Peptide 1595.06]	221 nM	> 20000 nM	1.2 nM	750 nM	9270 nM	> 20000 nM	148 nM	–
CC[C@H](C)[C@H](NC(=O)[C@H](CO)NC(=O)[C@@H](NC(=O)[C@@H]1CCCN1C(=O)[C@H](CO)NC(=O)[C@H](Cc1ccc(O)cc1)NC(=O)[C@H](CCSC)NC(=O)[C@@H](N)CCCNC(=N)N)C(C)C)C(=O)N[C@@H](CC(C)C)C(=O)O [Peptide 1605.07]	> 20000 nM	–	44 nM	> 20000 nM	–	–	–	> 20000 nM
CQDKILEHY [Peptide 1580.23]	55 nM	–	2600 nM	> 20000 nM	–	–	–	> 20000 nM
DLADQLIHLY [Peptide 9015.0184]	958 nM	–	–	9790 nM	–	–	–	6.2 nM
DLDDQLIHLY [Peptide 9018.0022]	4.9 nM	–	2.7 nM	3.7 nM	–	–	–	38 nM
DTADQLIHLY [Peptide 9018.0021]	3.6 nM	–	13 nM	30 nM	–	–	–	3.2 nM
EISNYTDIIY [Peptide 9015.0158]	6020 nM	–	2900 nM	> 20000 nM	–	–	–	59 nM
EISNYTDTIY [Peptide 9015.0157]	2340 nM	–	7050 nM	> 20000 nM	–	–	–	32 nM
ETKKGKAGY [Peptide 9015.0024]	> 20000 nM	–	2100 nM	> 20000 nM	–	–	–	15 nM
ETKLGKAGY [Peptide 9015.0023]	> 20000 nM	–	3900 nM	> 20000 nM	–	–	–	21 nM
ETPGIRYQY [Peptide 9015.0017]	9210 nM	–	2300 nM	> 20000 nM	–	–	–	25 nM
ETWETWWMDY [Peptide 9015.0168]	91 nM	–	601 nM	5120 nM	–	–	–	2.9 nM
ETWETWWTDY [Peptide 9015.0169]	955 nM	–	8650 nM	11800 nM	–	–	–	2.3 nM
FGEMVQWAY [Peptide 1580.13]	318 nM	–	249 nM	81 nM	–	–	–	> 20000 nM
GLADQLIHLY [Peptide 9015.0185]	5520 nM	–	9.2 nM	–	–	–	–	426 nM
GLDDQLIHLY [Peptide 9018.0024]	11 nM	–	56 nM	432 nM	–	–	–	1420 nM
GTADQLIHLY [Peptide 9018.0023]	26 nM	–	2 nM	–	–	–	–	68 nM
GTDCNGWFY [Peptide 1593.01]	40 nM	–	330 nM	73 nM	–	–	–	318 nM
GTEELRSLY [Peptide 9015.0010]	–	–	51 nM	4830 nM	–	–	–	666 nM
GYADQLIHLY [Peptide 9018.0025]	109 nM	–	1.2 nM	42 nM	–	–	–	4400 nM
GYFPDWQNY [Peptide 1605.15]	> 20000 nM	–	48 nM	659 nM	–	–	–	> 20000 nM

Compound	IC50 [1]	IC50 [2]	IC50 [3]	IC50 [4]	IC50 [5]	IC50 [6]	IC50 [7]	IC50 [8]
HMARELHPEY [Peptide 9015.0176]	618 nM	–	33 nM	–	–	–	–	1570 nM
HMDREKHPEY [Peptide 9018.0007]	24 nM	–	648 nM	> 20000 nM	–	–	–	2760 nM
HMDRELHPEY [Peptide 9018.0005]	5.1 nM	–	3.6 nM	13 nM	–	–	–	6.8 nM
HTAREKHPEY [Peptide 9018.0006]	–	–	–	4460 nM	–	–	–	15 nM
HTARELHPEY [Peptide 9018.0004]	8 nM	–	9.2 nM	–	–	–	–	12 nM
HYARELHPEY [Peptide 9018.0035]	> 20000 nM	–	104 nM	928 nM	–	–	–	> 20000 nM
ISERILSTY [Peptide 1522.03]	31 nM	–	–	> 20000 nM	–	–	–	4100 nM
ISWTYIDDY [Peptide 86.0135]	–	–	9.4 nM	2490 nM	–	–	–	> 20000 nM
ITKIGPENPY [Peptide 9015.0162]	–	–	–	> 20000 nM	–	–	–	985 nM
IVDDSEIAY [Peptide 1580.04]	–	–	2030 nM	–	–	–	–	> 20000 nM
KSDIVTLTY [Peptide 1593.07]	62 nM	–	–	3170 nM	–	–	–	> 20000 nM
LADQLIHMYY [Peptide 9015.0187]	2.5 nM	–	769 nM	–	–	–	–	1780 nM
LFDQLIHLY [Peptide 9018.0027]	83 nM	–	10 nM	45 nM	–	–	–	–
LFDQLIHMHY [Peptide 9018.0033]	4070 nM	–	47 nM	280 nM	–	–	–	–
LFDQLIHMYY [Peptide 9018.0030]	–	–	65 nM	12 nM	–	–	–	2410 nM
LSEMVQWAY [Peptide 1580.10]	6.9 nM	–	–	633 nM	–	–	–	> 20000 nM
LSQMVQWAY [Peptide 1580.03]	25 nM	–	1.8 nM	124 nM	–	–	–	–
LTDDSDIAY [Peptide 1580.11]	–	–	5440 nM	4770 nM	–	–	–	3920 nM
LTDQLIHMYY [Peptide 9018.0029]	6.3 nM	–	197 nM	–	–	–	–	3210 nM
MSDSQWIKY [Peptide 1593.05]	10 nM	–	434 nM	839 nM	–	–	–	–
MWKFDSRLAL [Peptide 1605.17]	> 20000 nM	–	–	> 20000 nM	–	–	–	> 20000 nM

Compound	IC50 [1]	IC50 [2]	IC50 [3]	IC50 [4]	IC50 [5]	IC50 [6]	IC50 [7]	IC50 [8]
NTDKSLVKY [Peptide 9018.0008]	7.3 nM	–	3010 nM	5430 nM	–	–	–	–
NYLVKHHMY [Peptide 9018.0037]	305 nM	–	12 nM	63 nM	–	–	–	–
QTKGLGISY [Peptide 9015.0031]	> 20000 nM	–	715 nM	> 20000 nM	–	–	–	–
RQEILDLWVY [Peptide 9015.0174]	7250 nM	–	76 nM	–	–	–	–	8720 nM
SFDPIPIHY [Peptide 9015.0002]	315 nM	–	–	27 nM	–	–	–	2650 nM
SSNLQGKLY [Peptide 86.0139]	3030 nM	–	62 nM	15900 nM	–	–	–	–
SSNTKANILY [Peptide 1580.08]	290 nM	–	33 nM	–	–	–	–	579 nM
STEWRQRRY [Peptide 9018.0017]	7.1 nM	–	19 nM	–	–	–	–	371 nM
SYEWRLRRY [Peptide 9018.0036]	3700 nM	–	58 nM	–	–	–	–	3220 nM
VMDDSEIAY [Peptide 1580.07]	–	–	2550 nM	95 nM	–	–	–	> 20000 nM
VSIEWRKRRY [Peptide 9015.0183]	> 20000 nM	–	231 nM	> 20000 nM	–	–	–	–
VSRRANGWFY [Peptide 9015.0179]	–	–	5.2 nM	5580 nM	–	–	–	> 20000 nM
VTDDSEIAY [Peptide 1593.13]	22 nM	–	10100 nM	–	–	–	–	> 20000 nM
VTRRANGWFY [Peptide 9018.0011]	25 nM	–	0.71 nM	905 nM	–	–	–	–
VTTIVYIEY [Peptide 9018.0041]	3.6 nM	–	92 nM	–	–	–	–	448 nM
VWTIVYIEY [Peptide 9015.0089]	6980 nM	–	–	–	–	–	–	> 20000 nM
WFDITNWLWY [Peptide 9015.0161]	986 nM	–	1660 nM	150 nM	–	–	–	–
YTPGPGTRY [Peptide 9015.0027]	–	–	9150 nM	1280 nM	–	–	–	11 nM
YTPGPGVRY [Peptide 9015.0026]	–	–	7640 nM	1350 nM	–	–	–	27 nM
